ChEMBL document CHEMBL4414548 (J Med Chem, 2019)
The source made the active and inactive calls. The calls are words filed in the database; no cut-off is given here.

Legend:
JAK1/TYK2 = JAK1/TYK2 (Homo sapiens, UniProt P23458+P29597); assay: Inhibition of TYK2/JAK1 in IFNalpha-stimulated human Kit225 cells by steady-glo luciferase assay
[1] = Partition coefficient, log P of compound by HPLC analysis; format: physicochemical; conditions: octanol/water
[2] = molecular target: T1, Voltage-gated inwardly rectifying potassium channel KCNH2 (Homo sapiens, UniProt Q12809); assay: Inhibition of human ERG by patch clamp assay
[3] = Permeability across apical to basolateral side in human Caco2 cells; format: ADME, cell-based; conditions: Caco-2, read-out: permeability
[4] = Half life in cynomolgus monkey liver microsomes; format: ADME, Macaca fascicularis, Microsome
[5] = molecular target: Tyrosine-protein kinase JAK1 (Homo sapiens, UniProt P23458); assay: Inhibition of JAK1 JH1 domain (unknown origin)
[6] = molecular target: T2, Non-receptor tyrosine-protein kinase TYK2 (Homo sapiens, UniProt P29597); assay: Inhibition of TYK2 JH2 domain in human whole blood assessed as inhibition of IFNalpha-induced STAT5 phosphorylation preincubated for 1 hr followed by IFNalpha stimulation and measured after 15 mins by fluorescence assay; format: tissue-based
[7] = Efflux ratio of permeability in human Caco2; format: ADME, cell-based; conditions: Caco-2
[8] = Half life in mouse liver microsomes; format: ADME, Microsome
[9] = Half life in human liver microsomes; format: ADME, Microsome
[10] = AUClast in mouse at 10 mg/kg, po after 7 hrs; format: ADME, organism-based; set-up: time < 7 hr, dose 10 mg/kg, route oral; conditions: in vivo
[11] = molecular target: Non-receptor tyrosine-protein kinase TYK2 (Mus musculus, UniProt Q9R117); assay: Inhibition of TYK2 JH2 domain in mouse whole blood assessed as inhibition of IFNalpha-induced STAT1 phosphorylation preincubated for 1 hr followed by IFNalpha stimulation and measured after 15 mins by fluorescence assay; format: tissue-based
[12] = molecular target: T2, Non-receptor tyrosine-protein kinase TYK2; assay: Inhibition of fluorescein-labeled kinase tracer binding to His-TVMV-fused TYK2 JH2 domain (575 to 869 residues) (unknown origin) measured after 90 mins by HTRF assay
[13] = Half life in rat liver microsomes; format: ADME, Microsome
[14] = molecular target: T2, Non-receptor tyrosine-protein kinase TYK2; assay: Inhibition of TYK2 JH1 domain (unknown origin)
[15] = Half life in dog liver microsomes; format: ADME, Canis lupus familiaris, Microsome
[16] = molecular target: T2, Non-receptor tyrosine-protein kinase TYK2; assay: Inhibition of TYK2 JH2 (unknown origin) by morrison titration assay; conditions: read-out: Ki(app)
[17] = Cmax in mouse at 10 mg/kg, po after 7 hrs; format: ADME, organism-based; set-up: dose 10 mg/kg, route oral; conditions: in vivo
[18] = molecular target: Tyrosine-protein kinase JAK2 (Homo sapiens, UniProt O60674); assay: Inhibition of JAK2 JH1 domain (unknown origin)
[19] = Metabolic stability in rat liver microsomes assessed as parent compound remaining after 10 mins; format: ADME, Microsome; conditions: read-out: Stability
[20] = Metabolic stability in human liver microsomes assessed as parent compound remaining after 10 mins; format: ADME, Microsome; conditions: read-out: Stability
[21] = Cmax in mouse at 10 mg/kg, po; format: ADME, organism-based; set-up: dose 10 mg/kg, route oral; conditions: in vivo
JAK2/TYK2 = JAK2/TYK2 (Homo sapiens, UniProt O60674+P29597); assay: Inhibition of TYK2/JAK2 in IL23-stimulated human Kit225 cells by steady-glo luciferase assay
[22] = molecular target: 3',5'-cyclic-AMP phosphodiesterase 4D (Homo sapiens, UniProt Q08499); assay: Inhibition of [3H]cAMP binding to recombinant human His-Tb fused PDE4D2 (86 to 413 residues) expressed in Escherichia coli using [3H]cAMP as substrate preincubated for 10 mins followed by [3H]cAMP addition and measured after 1 hr by scintillation proximity assay
[23] = AUClast in mouse at 10 mg/kg, po; format: ADME, organism-based; set-up: dose 10 mg/kg, route oral, time 0 - last; conditions: in vivo
[24] = Metabolic stability in mouse liver microsomes assessed as parent compound remaining after 10 mins; format: ADME, Microsome; conditions: read-out: Stability
Mus musculus [25] = assay: Inhibition of IL12/IL18-induced IFNgamma production in po dosed C57BL/6 mouse pretreated for 1 hr followed by IL12 stimulation and subsequent IL18 addition and measured after 3 hrs; format: functional, organism-based; conditions: tested as the 2H-labelled form
Mus musculus [26] = assay: Antiinflammatory activity in B6 CB17 mouse model of CD40-induced colitis assessed as reduction in colitis damage at 250 mg/kg, po BID administered as nanosuspension; format: functional, organism-based; conditions: tested as the 2H-labelled form
Mus musculus [27] = assay: Antiinflammatory activity in po dosed B6 CB17 mouse model of CD40-induced colitis assessed as inhibition of body weight loss administered twice daily as nanosuspension; format: functional, organism-based; conditions: tested as the 2H-labelled form
Mus musculus [28] = assay: Antiinflammatory activity in B6 CB17 mouse model of CD40-induced colitis assessed as reduction in colitis severity at 250 mg/kg, po BID administered as nanosuspension; format: functional, organism-based; conditions: tested as the 2H-labelled form
Mus musculus [29] = assay: Antiinflammatory activity in B6 CB17 mouse model of CD40-induced colitis assessed as reduction in inflammation at 250 mg/kg, po BID administered as nanosuspension; format: functional, organism-based; conditions: tested as the 2H-labelled form
[30] = molecular target: T1, Voltage-gated inwardly rectifying potassium channel KCNH2; assay: Inhibition of human ERG by fluorescence polarization assay
[31] = molecular target: Mast/stem cell growth factor receptor Kit (Homo sapiens, UniProt P10721); assay: Inhibition of cKIT (unknown origin)
JAK2/JAK1 = JAK2/JAK1 (Homo sapiens, UniProt O60674+P23458); assay: Inhibition of JAK1/JAK2 (unknown origin) in GM-CSF stimulated cells by cell based assay
[32] = Metabolic stability in pooled human liver microsomes at 0.5 uM after 10 mins by UV based analysis; format: ADME, Microsome; conditions: read-out: Stability
[33] = molecular target: T3, Inhibitor of nuclear factor kappa-B kinase subunit beta (Homo sapiens) (UniProt O14920); assay: Inhibition of IKKbeta (unknown origin)
T3 sequence (whole entry): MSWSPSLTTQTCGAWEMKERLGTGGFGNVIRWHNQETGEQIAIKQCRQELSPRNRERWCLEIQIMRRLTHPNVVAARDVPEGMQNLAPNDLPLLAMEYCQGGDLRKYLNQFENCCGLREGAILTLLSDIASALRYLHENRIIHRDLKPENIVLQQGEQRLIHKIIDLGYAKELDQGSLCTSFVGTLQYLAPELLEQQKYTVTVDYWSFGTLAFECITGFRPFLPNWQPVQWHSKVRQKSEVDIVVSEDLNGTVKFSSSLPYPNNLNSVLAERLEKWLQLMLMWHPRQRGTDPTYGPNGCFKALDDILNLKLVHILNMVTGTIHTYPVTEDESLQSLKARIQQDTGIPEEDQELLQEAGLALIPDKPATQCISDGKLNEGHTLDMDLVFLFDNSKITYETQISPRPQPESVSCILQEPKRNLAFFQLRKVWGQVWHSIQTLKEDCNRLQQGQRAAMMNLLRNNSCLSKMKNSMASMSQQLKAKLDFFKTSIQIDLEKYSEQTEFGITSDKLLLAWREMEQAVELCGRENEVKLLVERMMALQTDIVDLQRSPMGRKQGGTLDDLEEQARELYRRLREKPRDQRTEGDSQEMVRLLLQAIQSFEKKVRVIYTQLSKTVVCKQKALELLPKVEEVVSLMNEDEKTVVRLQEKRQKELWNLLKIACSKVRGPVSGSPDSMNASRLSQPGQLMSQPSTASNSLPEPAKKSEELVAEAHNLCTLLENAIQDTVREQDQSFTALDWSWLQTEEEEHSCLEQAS

JAK3/JAK1 = JAK3/JAK1 (Homo sapiens, UniProt P23458+P52333); assay: Inhibition of JAK1/JAK3 (unknown origin) in IL-2 stimulated cells by cell based assay
[34] = Metabolic stability in pooled mouse liver microsomes at 0.5 uM after 10 mins by UV based analysis; format: ADME, Microsome; conditions: read-out: Stability
[35] = molecular target: T2, Non-receptor tyrosine-protein kinase TYK2; assay: Inhibition of TYK2 JH2 (unknown origin) by Scintillation proximity assay
[36] = Protein binding in human plasma assessed as unbound fraction; format: ADME, cell-free

T2 sequence (P29597 whole entry, the tested form may be a part): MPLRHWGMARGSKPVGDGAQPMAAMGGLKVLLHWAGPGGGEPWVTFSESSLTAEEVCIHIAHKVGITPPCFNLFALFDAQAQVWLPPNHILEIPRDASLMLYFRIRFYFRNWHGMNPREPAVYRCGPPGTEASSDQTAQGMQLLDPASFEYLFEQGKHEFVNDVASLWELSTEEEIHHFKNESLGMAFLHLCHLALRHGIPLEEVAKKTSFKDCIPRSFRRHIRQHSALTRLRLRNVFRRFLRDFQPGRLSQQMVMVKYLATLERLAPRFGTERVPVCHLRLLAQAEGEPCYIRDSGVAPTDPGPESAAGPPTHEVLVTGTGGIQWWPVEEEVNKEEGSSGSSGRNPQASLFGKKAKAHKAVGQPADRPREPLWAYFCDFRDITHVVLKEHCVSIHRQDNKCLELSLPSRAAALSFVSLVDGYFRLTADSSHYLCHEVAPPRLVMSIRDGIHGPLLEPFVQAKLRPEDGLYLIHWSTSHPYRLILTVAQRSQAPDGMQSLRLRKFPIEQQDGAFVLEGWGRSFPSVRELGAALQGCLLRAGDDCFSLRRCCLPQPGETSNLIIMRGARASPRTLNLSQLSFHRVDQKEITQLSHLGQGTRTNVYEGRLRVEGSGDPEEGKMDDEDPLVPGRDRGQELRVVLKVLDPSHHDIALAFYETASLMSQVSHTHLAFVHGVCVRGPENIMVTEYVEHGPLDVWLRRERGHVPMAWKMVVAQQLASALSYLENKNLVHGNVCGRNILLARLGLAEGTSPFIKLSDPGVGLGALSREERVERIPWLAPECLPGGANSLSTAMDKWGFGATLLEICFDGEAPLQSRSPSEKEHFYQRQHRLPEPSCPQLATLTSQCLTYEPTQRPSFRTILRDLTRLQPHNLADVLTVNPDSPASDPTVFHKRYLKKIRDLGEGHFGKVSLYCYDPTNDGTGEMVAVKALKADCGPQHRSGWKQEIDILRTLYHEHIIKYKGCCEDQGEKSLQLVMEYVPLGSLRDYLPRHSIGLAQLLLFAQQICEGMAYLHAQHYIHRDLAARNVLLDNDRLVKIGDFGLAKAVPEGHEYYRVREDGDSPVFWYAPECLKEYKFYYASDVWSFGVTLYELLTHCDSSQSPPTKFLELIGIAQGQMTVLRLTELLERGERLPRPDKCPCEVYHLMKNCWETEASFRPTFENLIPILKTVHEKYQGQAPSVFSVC
Chain of JAK2/TYK2 (O60674 whole entry, the tested form may be a part): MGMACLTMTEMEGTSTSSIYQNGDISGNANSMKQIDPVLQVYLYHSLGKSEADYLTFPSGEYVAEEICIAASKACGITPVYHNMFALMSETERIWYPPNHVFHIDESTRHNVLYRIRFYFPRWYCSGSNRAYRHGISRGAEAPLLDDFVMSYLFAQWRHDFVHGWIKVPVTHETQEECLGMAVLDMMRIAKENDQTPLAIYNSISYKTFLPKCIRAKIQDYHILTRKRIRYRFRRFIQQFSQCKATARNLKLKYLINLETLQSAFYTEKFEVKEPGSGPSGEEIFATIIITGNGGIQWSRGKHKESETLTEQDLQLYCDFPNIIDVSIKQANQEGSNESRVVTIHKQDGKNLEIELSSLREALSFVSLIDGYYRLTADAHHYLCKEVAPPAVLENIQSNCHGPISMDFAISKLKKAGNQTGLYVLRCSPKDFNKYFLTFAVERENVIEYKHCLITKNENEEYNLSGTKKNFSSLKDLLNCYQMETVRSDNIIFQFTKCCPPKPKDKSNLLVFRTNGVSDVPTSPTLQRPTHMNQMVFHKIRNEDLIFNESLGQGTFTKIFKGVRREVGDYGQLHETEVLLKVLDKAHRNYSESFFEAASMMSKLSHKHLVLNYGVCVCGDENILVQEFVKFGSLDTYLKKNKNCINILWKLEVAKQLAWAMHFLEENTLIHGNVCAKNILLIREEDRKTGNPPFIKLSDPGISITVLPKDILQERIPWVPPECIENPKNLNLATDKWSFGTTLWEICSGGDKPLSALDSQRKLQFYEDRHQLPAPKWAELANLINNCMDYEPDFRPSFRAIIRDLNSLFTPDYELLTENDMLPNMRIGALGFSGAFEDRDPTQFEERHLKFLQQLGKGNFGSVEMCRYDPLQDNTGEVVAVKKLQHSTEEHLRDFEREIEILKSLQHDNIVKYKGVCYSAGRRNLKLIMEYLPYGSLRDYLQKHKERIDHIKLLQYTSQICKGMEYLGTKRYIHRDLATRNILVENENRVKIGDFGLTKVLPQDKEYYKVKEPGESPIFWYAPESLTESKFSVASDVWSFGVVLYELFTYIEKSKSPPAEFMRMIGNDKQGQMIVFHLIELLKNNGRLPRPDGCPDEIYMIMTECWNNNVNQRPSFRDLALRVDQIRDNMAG
Chain of JAK2/TYK2 (P29597 whole entry, the tested form may be a part): as the sequence (P29597 whole entry, the tested form may be a part) above
Chain of Tyrosine-protein kinase JAK2 (O60674 whole entry, the tested form may be a part): as the sequence (O60674 whole entry, the tested form may be a part) above
Chain of Non-receptor tyrosine-protein kinase TYK2 (Mus musculus, UniProt Q9R117) (Q9R117 whole entry, the tested form may be a part): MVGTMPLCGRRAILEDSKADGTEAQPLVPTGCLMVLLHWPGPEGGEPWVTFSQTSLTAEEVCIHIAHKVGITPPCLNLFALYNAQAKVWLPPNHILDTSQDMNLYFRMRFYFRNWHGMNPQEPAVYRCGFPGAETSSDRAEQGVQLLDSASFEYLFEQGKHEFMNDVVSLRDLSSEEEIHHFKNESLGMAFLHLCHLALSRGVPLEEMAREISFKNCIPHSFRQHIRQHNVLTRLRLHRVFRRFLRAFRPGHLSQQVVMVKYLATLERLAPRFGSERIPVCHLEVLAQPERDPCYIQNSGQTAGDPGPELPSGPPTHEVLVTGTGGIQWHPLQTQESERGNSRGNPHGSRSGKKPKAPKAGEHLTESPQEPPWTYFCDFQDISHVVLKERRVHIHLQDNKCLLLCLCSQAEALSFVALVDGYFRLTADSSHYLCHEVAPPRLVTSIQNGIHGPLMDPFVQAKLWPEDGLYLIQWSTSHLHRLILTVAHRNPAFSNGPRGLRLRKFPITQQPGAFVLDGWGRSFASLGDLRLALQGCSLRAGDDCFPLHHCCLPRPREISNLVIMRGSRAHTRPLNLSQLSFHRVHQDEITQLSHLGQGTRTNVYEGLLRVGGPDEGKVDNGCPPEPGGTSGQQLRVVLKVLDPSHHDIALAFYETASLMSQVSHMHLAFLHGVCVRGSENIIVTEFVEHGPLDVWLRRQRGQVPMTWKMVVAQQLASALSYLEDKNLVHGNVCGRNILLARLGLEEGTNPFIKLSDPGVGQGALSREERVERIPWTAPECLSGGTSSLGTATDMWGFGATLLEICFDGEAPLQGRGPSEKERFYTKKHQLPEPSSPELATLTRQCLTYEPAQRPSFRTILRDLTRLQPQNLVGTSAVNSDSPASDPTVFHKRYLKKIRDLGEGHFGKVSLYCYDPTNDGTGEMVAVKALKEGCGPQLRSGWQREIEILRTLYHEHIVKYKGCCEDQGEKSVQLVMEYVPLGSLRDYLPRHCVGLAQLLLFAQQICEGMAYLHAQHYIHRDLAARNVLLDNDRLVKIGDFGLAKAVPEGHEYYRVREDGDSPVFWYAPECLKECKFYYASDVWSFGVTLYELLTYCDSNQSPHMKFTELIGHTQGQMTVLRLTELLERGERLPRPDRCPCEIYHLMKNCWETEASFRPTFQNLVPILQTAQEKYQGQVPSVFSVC
Chain of Mast/stem cell growth factor receptor Kit (P10721 whole entry): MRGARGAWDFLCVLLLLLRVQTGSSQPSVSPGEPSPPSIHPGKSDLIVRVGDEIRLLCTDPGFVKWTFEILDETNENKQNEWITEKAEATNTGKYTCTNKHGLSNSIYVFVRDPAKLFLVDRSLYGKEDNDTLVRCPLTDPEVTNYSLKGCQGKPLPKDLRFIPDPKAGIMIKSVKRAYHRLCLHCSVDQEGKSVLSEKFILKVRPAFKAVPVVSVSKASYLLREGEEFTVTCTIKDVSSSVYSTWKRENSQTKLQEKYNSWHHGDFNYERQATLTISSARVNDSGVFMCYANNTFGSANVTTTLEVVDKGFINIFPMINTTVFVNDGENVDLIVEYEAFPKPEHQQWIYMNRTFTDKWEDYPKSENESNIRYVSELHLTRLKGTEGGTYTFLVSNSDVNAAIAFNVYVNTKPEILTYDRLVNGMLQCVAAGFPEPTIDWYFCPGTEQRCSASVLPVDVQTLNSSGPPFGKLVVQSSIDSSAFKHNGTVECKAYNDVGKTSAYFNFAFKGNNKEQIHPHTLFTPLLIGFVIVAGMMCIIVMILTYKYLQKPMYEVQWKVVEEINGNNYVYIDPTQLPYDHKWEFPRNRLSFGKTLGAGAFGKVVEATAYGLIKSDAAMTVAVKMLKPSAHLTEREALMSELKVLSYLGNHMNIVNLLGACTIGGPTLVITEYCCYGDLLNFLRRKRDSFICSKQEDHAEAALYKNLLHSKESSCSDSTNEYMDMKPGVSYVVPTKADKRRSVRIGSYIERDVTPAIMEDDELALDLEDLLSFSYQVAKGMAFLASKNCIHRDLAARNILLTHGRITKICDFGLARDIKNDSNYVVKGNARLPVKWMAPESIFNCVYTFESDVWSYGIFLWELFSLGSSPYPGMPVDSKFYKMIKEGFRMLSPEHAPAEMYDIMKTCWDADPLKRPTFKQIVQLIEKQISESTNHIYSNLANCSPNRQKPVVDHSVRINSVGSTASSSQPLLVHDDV

Row | SMILES | IC50 (JAK1/TYK2) | logP [1] | Papp A→B [3] | half-life [4] | IC50 [5] | IC50 [6] | efflux ratio [7] | half-life [8] | half-life [9] | AUC(0-t) at 7 h [10] | IC50 [11] | IC50 [12] | half-life [13] | IC50 [14] | half-life [15] | Cmax [17] | IC50 [18] | IC50 (JAK2/TYK2) | IC50 [30] | IC50 [31] | other results
1 | [2H]C([2H])([2H])NC(=O)c1nnc(NC(=O)C2CC2)cc1Nc1ccccc1S(C)(=O)=O | 1.3 nM | 2.03 | 6.9 ×10⁻⁶ cm/s | 67 min | > 2000 nM | 230 nM | 7.7 | 48 min | 110 min | 6.61 µM·h | 340 nM | 1.3 nM | 81 min | 50000 nM | 75 min | 3420 nM | > 50000 nM | – | – | – | IC50 [2]: > 30000 nM; Ki [16]: 0.8 nM
2 | CNC(=O)c1cnc(Nc2ccc(F)cn2)cc1Nc1ccc(F)c(F)c1OC | 220 nM | – | 4.1 ×10⁻⁶ cm/s | – | – | 2400 nM | 0.5 | – | – | – | – | 1.5 nM | – | – | – | – | – | 380 nM | – | – | remaining at 10 min [19]: 73%; remaining at 10 min [20]: 57%; Cmax [21]: 1600 nM; IC50 [22]: 7400 nM; AUC(0-t) [23]: 4 µM·h; remaining at 10 min [24]: 58%
3 | CNC(=O)c1nnc(Nc2ccccn2)cc1Nc1ccccc1S(C)(=O)=O | – | – | – | – | – | – | – | – | – | – | – | – | – | – | – | – | – | – | – | – | inhibition (Mus musculus [25]): Dose-dependent effect; Activity (Mus musculus [26]): Active; inhibition (Mus musculus [27]): Dose-dependent effect; Activity (Mus musculus [28]): Active; Activity (Mus musculus [29]): Active
4 | [2H]C([2H])([2H])NC(=O)c1nnc(Nc2ccc(F)cn2)cc1Nc1ccccc1S(C)(=O)=O | – | 2.77 | 14.3 ×10⁻⁶ cm/s | 10 min | – | 200 nM | 3.4 | 50 min | 71 min | 11.6 µM·h | 380 nM | 0.58 nM | 80 min | – | 32 min | 3890 nM | – | – | – | – | –
5 | CNC(=O)c1cnc(NC(=O)C2CC2)cc1Nc1ccccc1S(C)(=O)=O | 390 nM | 1.89 | 1.7 ×10⁻⁶ cm/s | 108 min | – | 310 nM | 29 | 10 min | > 120 min | 0.56 µM·h | 830 nM | 1.6 nM | 115 min | – | 34 min | 190 nM | – | 430 nM | > 80000 nM | > 2000 nM | –
6 | CNC(=O)c1cnc(Nc2ccccn2)cc1Nc1ccccc1S(C)(=O)=O | 57 nM | 2.24 | 10.2 ×10⁻⁶ cm/s | 3 min | – | 250 nM | 9.8 | 14 min | 53 min | 4.29 µM·h | 340 nM | 0.95 nM | 25 min | – | 13 min | 1860 nM | – | 71 nM | 36000 nM | 630 nM | –
7 | NC(=O)c1ccccc1Nc1cc(Nc2ccc(F)cn2)ncc1C(N)=O | 37 nM | – | – | – | 26 nM | – | – | – | – | – | – | 0.46 nM | – | 15 nM | – | – | 24 nM | 89 nM | – | – | IC50 (JAK2/JAK1): 210 nM; remaining at 10 min, 0.5 µM [32]: > 80%; inhibition [33]: inactive; IC50 (JAK3/JAK1): 400 nM; Ki [16]: 0.06 nM; remaining at 10 min, 0.5 µM [34]: > 80%; EC50 [35]: 6.6 nM
8 | CNC(=O)c1cnc(Nc2ccc(F)cn2)cc1Nc1ccccc1C(N)=O | 320 nM | – | < 1.5 ×10⁻⁶ cm/s | – | > 2000 nM | 530 nM | > 35 | – | – | – | – | 1.3 nM | – | > 2000 nM | – | – | > 2000 nM | 660 nM | – | – | IC50 (JAK2/JAK1): > 12500 nM; remaining at 10 min [19]: 83%; fraction unbound [36]: 0.263; IC50 (JAK3/JAK1): > 12500 nM; remaining at 10 min [20]: 94%; Cmax [21]: 36 nM; IC50 [22]: 10400 nM; AUC(0-t) [23]: 0.15 µM·h; remaining at 10 min [24]: 82%
9 | CNC(=O)c1cnc(Nc2ccc(N3CCOCC3)cn2)cc1Nc1ccccc1S(C)(=O)=O | 59 nM | – | < 1.5 ×10⁻⁶ cm/s | – | – | 58 nM | > 26 | – | – | – | – | – | – | – | – | – | – | 71 nM | 40000 nM | > 2000 nM | –
